How the values were obtained:
[1] = tested on: murine motoneurons; experiment: In vitro neurite outgrowth of motoneurons; format: cell-based, C57BL/6J mice; details: tegaserod, cisapride, GR113808 100 nM; colominic acid 3 µM; PSA mimicking peptide 30 µM; Figure 2B
Protocol: (§1) Primary cultures of cerebellar neurons or Schwann cells were prepared from cerebellum or dorsal root ganglia of 7-day-old C57BL/6J mice as described in Mehanna et al. (2009), Brain, 132 (Pt 6): 1449-62 and Loers et al. (2005), J. Neurochem., 92(6): 1463-76. Motoneurons were prepared from E14 C57BL/6J mice as described in Simova et al. (2006), Ann. Neurol., 60(4): 430-437. In brief, 48-well plates were coated with 0.01% poly-L-lysine (PLL) or poly-L-ornithine (PLO) overnight at 4°C, washed twice with water and air-dried. Directly before use, plates were washed twice with PBS, and Schwann cells, cerebellar neurons (PLL) or motoneurons (PLO) were seeded at a density of 1.25 x 10^4 (Schwann cells and motoneurons) or 2.5 x 10^4 cells (cerebellar neurons) per well in 250 µl of corresponding serum-free culture medium. Soluble organic compounds were added to the culture 1 h after seeding in increasing concentrations. After maintenance for 24 h at 37°C, cells were fixed with 2.5% glutaraldehyde and stained with 1% methylene blue/toluidine blue in 1% borax. Morphological quantification of neurite or process lengths was performed as described in Mehanna et al. (2009), see above. Schwann cell processes and neurites of cerebellar neurons with a length of at least one cell body diameter were counted and total neurite or process length per cell was determined by counting 50 cells in each of two wells per experiment. At least three independent experiments were performed for each culture. Also, the activity of tegaserod with the PSA peptide mimic and the bacterial PSA analogue, colominic acid, on neurite and process extension experiments was compared.

[2] = tested on: cerebellar granule neurons (cGNs); experiment: In vitro neurite outgrowth of cerebellar granule neurons; format: cell-based, C57BL/6J mice; details: compared to control; Figure 2C, D
Protocol: as §1

[3] = tested on: motoneurons isolated from NCAM^-/- mice; experiment: In vitro neurite outgrowth of NCAM-deficient motoneurons; format: cell-based; details: tegaserod 100 nM; colominic acid 3 µM; PSA mimicking peptide 30 µM; Figure 2B
Protocol: as §1, with “After maintenance for 24 h at 37°C, cells were fixed with 2.5% glutaraldehyde and stained with 1% methylene blue/toluidine blue in 1% borax.” left out, “At least three independent experiments were performed for each culture. Also, the activity of tegaserod with the PSA peptide mimic and the bacterial PSA analogue, colominic acid, on neurite and process extension experiments was compared.” left out

[4] = tested on: murine cerebellar granule neurons (cGNs), Schwann cells, and motoneurons; experiment: In vitro neurite/process outgrowth, statements covering all cell types; format: cell-based, C57BL/6J mice
Protocol: as §1

Row | Molecule | effect on neurite extension of murine motoneurons (in words) [1] | effect on neurite outgrowth of cGNs (in words) [2] | effect on neurite extension of NCAM^-/- motoneurons (in words) [3] | concentration of maximal stimulatory effects ([4]; neurite and process extension of neurons and Schwann cells) | effect of overdosing / higher concentrations (in words) ([4]; neurons and Schwann cells)
1 | Cn1cc(C(=O)OCC2CCN(CCNS(C)(=O)=O)CC2)c2ccccc21 [GR 113808] | no ability to enhance motoneuron neurite extension |  |  |  | 
2 | COc1cc(N)c(Cl)cc1C(=O)NC1CCN(CCCOc2ccc(F)cc2)CC1OC (stereo not drawn) [cisapride] | no ability to enhance motoneuron neurite extension | not observed |  |  | 
3 | NCCc1c[nH]c2ccc(O)cc12 [serotonin] | no ability to enhance motoneuron neurite extension | not observed |  |  | 
4 | NTHTDPYIYPIDC [PSA mimicking peptide] | significant stimulatory effect |  | no enhancement in neurite extension | 30 µM | did not lead to any negative side effects

From patent EP2724723A1, “Tegaserod for use in the treatment of nerve injuries” (Universitätsklinikum Hamburg-Eppendorf, priority 2012, dated 2014)
